Experimental findings from US20240009219A1, “COMPOSITIONS AND METHODS USING A COMBINATION OF OLEUROPEIN AND NICOTINAMIDE RIBOSIDE FOR CELLULAR ENERGY” (SOCIETE DES PRODUITS NESTLE S.A., priority 2020, published 2024) are described below.

SMILES strings stand for the structures.

The subject of assay [1] is myotubes differentiated from C2C12 cells. The experiment in a line: Mitochondrial calcium measurement with mitochondrially targeted aequorin, caffeine stimulation. It counts as cell-based. Conditions: NAD+-containing myotubes; Oea 10 μM, NR 0.5 mM; n=6. The procedure: C2C12 cells were purchased from ATCC. C2C12 cells were seeded in 96-well plates at a density of 15 000 cells per well in DMEM high glucose (Gibco)+10% fetal calf serum. Myotubes were differentiated from C2C12 cells by growing the cells in DMEM containing 2% horse serum, for 6 days. Mitochondrial calcium measurements were carried out using myotubes infected with the adenovirus (from Sirion biotech) expressing the mitochondrially targeted calcium sensor mitochondrial mutated aequorin (Montero et al., 2004). For aequorin reconstitution, 48 hours after infection, cells or myotubes were incubated for 2 h at room temperature (22±° C.) in standard medium (145 mM NaCl, 5 mM KCl, 1 mM MgCl2, 1 mM CaCl2, 10 mM glucose and 10 mM Hepes, pH 7.4) with 1 μM wild-type coelenterazine. Myotubes were stimulated with 5 mM of caffeine and the total calcium transition during stimulation was calculated as the area under the curve. […] Luminescence was measured at the Cytation 3 cell imaging reader (Biotek). Calibration of the luminescence data into Calcium concentration was carried out using an algorithm as described previously (Alvarez & Montero, 2002). Custom module analysis based on Excel (Microsoft) and GraphPad Prism 7.02 (GraphPad) software was used for quantification.

Assay [2] shares this test system. The assay can be described thus: NAD+ measurement (NAD/NADH Quantification Kit). It counts as cell-based. Conditions: NAD+-depleted myotubes; NR 0.5 mM, Oea 10 μM; n=6. The procedure: C2C12 cells were purchased from ATCC. C2C12 cells were seeded in 96-well plates at a density of 15 000 cells per well in DMEM high glucose (Gibco)+10% fetal calf serum. Myotubes were differentiated from C2C12 cells by growing the cells in DMEM containing 2% horse serum, for 6 days.
To obtain a condition of restrictions of NAD bioavailability, C2C12-derived myotubes were treated with 1 μM of FK866, an NAMPT inhibitor, for 3 days before experiment. Luminescence was measured at the Cytation 3 cell imaging reader (Biotek). Calibration of the luminescence data into Calcium concentration was carried out using an algorithm as described previously (Alvarez & Montero, 2002). Custom module analysis based on Excel (Microsoft) and GraphPad Prism 7.02 (GraphPad) software was used for quantification.
NAD^+ measurements were carried out using myotubes treated as previous described and quantifying with NAD/NADH Quantification Kit (Sigma-Aldrich).

The subject of another assay is C. elegans. The experiment in a line: C. elegans lifespan test. Conditions: treated from day 1 of adulthood; NR 100 μM, Oae 200 μM, wild type N2 worms. It counts as in vivo, Caenorhabditis elegans. On the procedure: C. elegans lifespan tests were performed using about 100 animals per condition and scored manually every other day. The experimental measurements of the effect of nicotinamide riboside, oleuropein aglycone, and the combination NR+Oae treatment were started at day 1 of wild type N2 worm adulthood, in a regimen of chronic exposure till experiments termination.

For the molecule `C/C=C1/C(O)OC=C(C(=O)OC)[C@H]1CC(=O)OCCc1ccc(O)c(O)c1` (mixture of isomers) [Oleuropein aglycone, oleuropein aglycone], the “integrated mitochondrial calcium rise, evoked by 5 mM caffeine” value in assay [1] is “activates mitochondria via mitochondrial Ca^2+ rise”. Further, in assay [2], the NAD production result is “does not boosts NAD production”. For the same molecule, the mean lifespan extension in the assay on C. elegans came out at 10%.

`NC(=O)c1ccc[n+]([C@@H]2O[C@H](CO)[C@@H](O)[C@H]2O)c1` [Nicotinamide riboside, nicotinamide riboside]: the “integrated mitochondrial calcium rise, evoked by 5 mM caffeine” value in assay [1] is recorded as “does not boost mitochondrial Ca^2+ rise”. The mean lifespan extension with C. elegans stood at 5%.
